Data reported in PMC12549899 (Nature Communications, 2025).
Several values for one entry are separate records, joined by “and”; a condition that tells them apart may be missing. Equal values may be shown once.

Molecular target: T1, DrOTOP1 G130W/A274W (Danio rerio, UniProt Q7ZWK8, A274W/G130W)
T1 construct: A previously generated codon-optimized full-length DrOTOP1[8]; (UniProt: Q7ZWK8) construct; expressed in transfected cells; host or cells: HEK-293 (CRL-1573, ATCC)
T1 sequence (Q7ZWK8 1-586 G130W/A274W): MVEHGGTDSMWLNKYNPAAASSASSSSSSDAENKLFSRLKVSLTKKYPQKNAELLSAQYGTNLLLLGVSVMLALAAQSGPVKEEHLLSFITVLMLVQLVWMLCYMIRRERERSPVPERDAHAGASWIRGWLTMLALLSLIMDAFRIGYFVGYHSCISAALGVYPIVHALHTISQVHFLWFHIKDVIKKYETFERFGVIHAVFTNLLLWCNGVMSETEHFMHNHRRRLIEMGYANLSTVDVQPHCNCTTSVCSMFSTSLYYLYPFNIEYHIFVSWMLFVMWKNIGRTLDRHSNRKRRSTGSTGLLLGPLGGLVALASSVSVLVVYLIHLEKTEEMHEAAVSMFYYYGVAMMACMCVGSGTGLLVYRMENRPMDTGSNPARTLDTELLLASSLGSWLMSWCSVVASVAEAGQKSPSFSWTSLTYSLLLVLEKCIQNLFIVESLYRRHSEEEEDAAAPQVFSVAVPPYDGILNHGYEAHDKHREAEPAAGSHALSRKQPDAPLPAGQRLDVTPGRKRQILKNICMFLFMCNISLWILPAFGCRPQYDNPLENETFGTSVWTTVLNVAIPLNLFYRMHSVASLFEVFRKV
Test: Whole-cell patch-clamp, inhibition of acid-evoked currents, DrOTOP1 G130W/A274W
Format: cell-based, zebrafish (Danio rerio)
Method: Given our limited success in identifying mutations of the central site that disrupt antagonism by C2.2, we tested whether mutations of the central site in a background of G130W (the most impactful outer site mutation) might unmask contributions of this site. Thus, we generated and tested double mutants of G130W with E384A, A274W, and A388W. […] We also measured the dose-dependence of inhibition by C2.2 for both G130W/A388W and G130W/E384A (Fig. 5I, J). […] G130W was tested in parallel to confirm that 100 and 300 μM C2.2 produced dose-dependent inhibition.
HEK-293 cells (CRL-1573, ATCC) were cultured in DMEM (Thermofisher 11995073) containing 10% fetal bovine serum (Life Technology 16000044) and Penicillin-Streptomycin (100 I.U./mL) and (100 µg/mL), respectively. Cells were transfected with WT DrOTOP1 or mutant DrOTOP1 channels in 35 mm petri dishes, with ~ 500 ng DNA and 2 μL TransIT-LT1 transfection reagent (Mirus Bio Corporation, Cat # MIR2300) following the manufacturer’s protocol. […]
Whole-cell patch-clamp recording was performed as previously described[6],[22],[25]. Recordings were made with an Axopatch 200B amplifier, digitized with a Digidata 1322a 16-bit data acquisition system, acquired with pClamp 8.2 and analyzed with Clampfit 10 (Molecular Devices). […]
All data are presented as mean ± SEM unless otherwise noted, and each data point represents an independent replicant. Inhibition of compounds was quantified as ((I2peak-I1)/(I2peak))*100, where I1 is the current immediately before wash-off and I2peak is the maximum recovered current (Supplementary Fig. 2). Hill coefficients were determined by the following equation: Y = Bmax*X^h/(Kd^h + X^h). Absolute IC50 was determined by the following equation: Fifty = (Top + Baseline)/2 Y = Bottom + (Top-Bottom)/(1 + ((Top-Bottom)/(Fifty-Bottom) − 1)*(AbsoluteIC50/X)^HillSlope). pH50 curves (Fig. 6G inset) were determined using the following equation: Y = Bottom + (Top-Bottom)/(1 + (EC/X)^HillSlope) where EC = EC50 control. […]

Row | SMILES | inhibition at 10 µM (10 µM, single cells or mean) [%] | Inhibition of currents (100 µM, single cells) | inhibition at 100 µM (100 µM, single cells) [%]
1 | C=C(C)COc1ccccc1NC(=O)c1nc[nH]c1C [C2.2] | 8.49 |  | 
2 | O=C(/C(=N\O)c1ccccc1)c1ccccc1 [C11, benzil monoxime] |  | 67.5079% and 70.0684% and 78.866% and 74.4022% | 67.5
